Data published in ChEMBL document CHEMBL4813985, “Lead optimization generates selenium-containing miconazole CYP51 inhibitors with improved pharmacological profile for the treatment of fungal infections” (Eur J Med Chem, 2021).
≈ marks a conversion by molar mass, not a printed value.

Assays:
Format in all cases: functional
[1] = system: Aspergillus fumigatus; assay: Antifungal activity against Aspergillus fumigatus CMGCC3.7795 measured after 72 hrs by broth microdilution assay
[2] = system: Candida albicans; assay: Antifungal activity against Candida albicans CPCC400616 measured after 24 hrs by broth microdilution assay
[3] = system: Nakaseomyces glabratus; assay: Antifungal activity against Candida glabrata measured after 24 hrs by broth microdilution assay
[4] = system: Candida albicans; assay: Potency index, ratio of fluconazole MIC to test compound MIC for Candida albicans CPCC400616 measured after 24 hrs by broth microdilution assay
[5] = system: Candida albicans; assay: Antifungal activity against fluconazole-resistant Candida albicans 904 assessed as inhibition of microbial growth after 24 hrs by broth microdilution method
[6] = system: Candida albicans; assay: Antifungal activity against fluconazole-resistant Candida albicans CaR assessed as inhibition of microbial growth after 24 hrs by broth microdilution method
[7] = system: Cryptococcus neoformans; assay: Antifungal activity against Cryptococcus neoformans CMGCC2.3161 measured after 72 hrs by broth microdilution assay
[8] = system: Candida albicans; assay: Antifungal activity against fluconazole-resistant Candida albicans 17# assessed as inhibition of microbial growth after 24 hrs by broth microdilution method
[9] = system: Candida albicans; assay: Antifungal activity against Candida albicans ATCC SC5314 measured after 24 hrs by broth microdilution assay
[10] = system: Pichia kudriavzevii; assay: Antifungal activity against Candida krusei AS2.1045 measured after 24 hrs by broth microdilution assay
[11] = system: Candida albicans; assay: Antifungal activity against fluconazole-resistant Candida albicans 901 assessed as inhibition of microbial growth after 24 hrs by broth microdilution method
[12] = system: Candida parapsilosis; assay: Antifungal activity against Candida parapsilosis ATCC 22019 measured after 24 hrs by broth microdilution assay; settings: Lodderomyces parapsilosis
[13] = system: [Candida] zeylanoides; assay: Antifungal activity against Candida zeylanoides CMGCC2.3739 measured after 24 hrs by broth microdilution assay; settings: Dujonia zeylanoides
[14] = system: Candida albicans; assay: Antifungal activity against fluconazole-resistant Candida albicans 632 assessed as inhibition of microbial growth after 24 hrs by broth microdilution method

| Compound | MIC [1] [µg/mL] | MIC [2] [µg/mL] | MIC [3] [µg/mL] | Ratio [4] | MIC [5] [µg/mL] | MIC [6] [µg/mL] | MIC [7] [µg/mL] | MIC [8] [µg/mL] | MIC [9] [µg/mL] | MIC [10] [µg/mL] | MIC [11] [µg/mL] | MIC [12] [µg/mL] | MIC [13] [µg/mL] | MIC [14] [µg/mL] |
| --- | --- | --- | --- | --- | --- | --- | --- | --- | --- | --- | --- | --- | --- | --- |
| Cc1ccccc1[Se]C(Cn1ccnc1)c1ccc(Cl)cc1Cl (configuration not stated) | 16 (≈ 39 µM) | 0.13 (≈ 0.317 µM) | 0.25 (≈ 0.609 µM) | 8 | 0.5 | 4 | 0.5 (≈ 1.22 µM) | 2 | 0.03 (≈ 0.0731 µM) | 0.13 (≈ 0.317 µM) | 0.5 | 0.5 (≈ 1.22 µM) | 0.5 (≈ 1.22 µM) | 0.5 |
| Fc1ccc(C[Se]C(Cn2cncn2)c2ccc(Cl)cc2Cl)cc1 (configuration not stated) | 16 (≈ 37.3 µM) | 2 (≈ 4.66 µM) | 4 (≈ 9.32 µM) | – | > 128 | > 128 | 8 (≈ 18.6 µM) | > 128 | 0.13 (≈ 0.303 µM) | 128 (≈ 298 µM) | > 128 | 64 (≈ 149 µM) | 64 (≈ 149 µM) | > 128 |
| Cc1ccc([Se]C(Cn2ccnc2)c2ccc(F)cc2F)cc1 (configuration not stated) | 8 (≈ 21.2 µM) | 0.5 (≈ 1.33 µM) | 0.5 (≈ 1.33 µM) | 8 | 4 | 2 | 0.13 (≈ 0.345 µM) | 16 | 0.03 (≈ 0.0795 µM) | 0.13 (≈ 0.345 µM) | 8 | 0.25 (≈ 0.663 µM) | 0.5 (≈ 1.33 µM) | 1 |
| COc1cccc([Se]C(Cn2ccnc2)c2ccc(F)cc2F)c1 (configuration not stated) | 4 (≈ 10.2 µM) | 0.5 (≈ 1.27 µM) | 0.5 (≈ 1.27 µM) | 8 | 8 | 2 | 0.5 (≈ 1.27 µM) | 4 | 0.13 (≈ 0.331 µM) | 0.13 (≈ 0.331 µM) | 4 | 0.25 (≈ 0.636 µM) | 1 (≈ 2.54 µM) | 1 |
| CCc1ccc([Se]C(Cn2ccnc2)c2ccc(F)cc2F)cc1 (configuration not stated) | 8 (≈ 20.4 µM) | 0.13 (≈ 0.332 µM) | 0.5 (≈ 1.28 µM) | 8 | 8 | 1 | 0.03 (≈ 0.0767 µM) | 4 | 0.13 (≈ 0.332 µM) | 0.13 (≈ 0.332 µM) | 2 | 0.13 (≈ 0.332 µM) | 0.5 (≈ 1.28 µM) | 1 |
| CCc1ccc([Se]C(Cn2ccnc2)c2ccc(Cl)cc2Cl)cc1 (configuration not stated) | 4 (≈ 9.43 µM) | 0.5 (≈ 1.18 µM) | 0.13 (≈ 0.306 µM) | 8 | 15 | 8 | 0.5 (≈ 1.18 µM) | 8 | 0.03 (≈ 0.0707 µM) | 0.06 (≈ 0.141 µM) | 4 | 1 (≈ 2.36 µM) | 0.5 (≈ 1.18 µM) | 4 |
| Clc1ccc(C(Cn2ccnc2)[Se]c2ccccc2)c(Cl)c1 (configuration not stated) | 8 (≈ 20.2 µM) | 0.25 (≈ 0.631 µM) | 1 (≈ 2.52 µM) | 8 | 2 | 1 | 0.13 (≈ 0.328 µM) | 1 | 0.13 (≈ 0.328 µM) | 0.13 (≈ 0.328 µM) | 2 | 0.25 (≈ 0.631 µM) | 0.25 (≈ 0.631 µM) | 1 |
| COc1ccc(C[Se]C(Cn2cncn2)c2ccc(F)cc2F)cc1 (configuration not stated) | 4 (≈ 9.8 µM) | 1 (≈ 2.45 µM) | 2 (≈ 4.9 µM) | – | > 128 | 128 | 32 (≈ 78.4 µM) | 64 | 2 (≈ 4.9 µM) | 32 (≈ 78.4 µM) | > 128 | > 128 | 32 (≈ 78.4 µM) | > 128 |
| COc1ccccc1[Se]C(Cn1ccnc1)c1ccc(F)cc1F (configuration not stated) | 8 (≈ 20.3 µM) | 1 (≈ 2.54 µM) | 0.25 (≈ 0.636 µM) | 8 | 8 | 8 | 1 (≈ 2.54 µM) | 8 | 0.02 (≈ 0.0509 µM) | 0.5 (≈ 1.27 µM) | 4 | 0.13 (≈ 0.331 µM) | 0.13 (≈ 0.331 µM) | 16 |
| COc1ccc([Se]C(Cn2ccnc2)c2ccc(Cl)cc2Cl)cc1 (configuration not stated) | 16 (≈ 37.5 µM) | 0.13 (≈ 0.305 µM) | 0.25 (≈ 0.587 µM) | 8 | 8 | 8 | 0.25 (≈ 0.587 µM) | 2 | 0.03 (≈ 0.0704 µM) | 0.02 (≈ 0.0469 µM) | 8 | 0.25 (≈ 0.587 µM) | 0.5 (≈ 1.17 µM) | 2 |
| Fc1ccc(C(Cn2cncn2)[Se]Cc2ccccc2)c(F)c1 (configuration not stated) | 8 (≈ 21.1 µM) | 0.5 (≈ 1.32 µM) | 2 (≈ 5.29 µM) | – | 16 | 128 | 4 (≈ 10.6 µM) | 32 | 0.06 (≈ 0.159 µM) | 4 (≈ 10.6 µM) | 16 | 16 (≈ 42.3 µM) | 8 (≈ 21.1 µM) | > 128 |
| COc1ccccc1[Se]C(Cn1ccnc1)c1ccc(Cl)cc1Cl (configuration not stated) | 8 (≈ 18.8 µM) | 0.06 (≈ 0.141 µM) | 0.5 (≈ 1.17 µM) | 8 | 8 | 2 | 0.5 (≈ 1.17 µM) | 2 | 0.03 (≈ 0.0704 µM) | 0.13 (≈ 0.305 µM) | 1 | 0.13 (≈ 0.305 µM) | 0.25 (≈ 0.587 µM) | 2 |
| Clc1ccc(C[Se]C(Cn2cncn2)c2ccc(Cl)cc2Cl)c(Cl)c1 (configuration not stated) | 16 (≈ 33.3 µM) | 0.25 (≈ 0.521 µM) | 0.5 (≈ 1.04 µM) | – | > 128 | > 128 | 64 (≈ 133 µM) | > 128 | 0.25 (≈ 0.521 µM) | 128 (≈ 267 µM) | > 128 | 64 (≈ 133 µM) | 128 (≈ 267 µM) | > 128 |
| Cc1cc(C)cc([Se]C(Cn2ccnc2)c2ccc(Cl)cc2Cl)c1 (configuration not stated) | 8 (≈ 18.9 µM) | 0.5 (≈ 1.18 µM) | 0.25 (≈ 0.589 µM) | 8 | 16 | 8 | 0.5 (≈ 1.18 µM) | 16 | 0.06 (≈ 0.141 µM) | 0.5 (≈ 1.18 µM) | 4 | 0.5 (≈ 1.18 µM) | 0.5 (≈ 1.18 µM) | 16 |
| COc1ccc(C[Se]C(Cn2cncn2)c2ccc(Cl)cc2Cl)cc1 (configuration not stated) | 4 (≈ 9.07 µM) | 16 (≈ 36.3 µM) | 4 (≈ 9.07 µM) | – | 128 | 128 | 16 (≈ 36.3 µM) | 32 | 1 (≈ 2.27 µM) | 64 (≈ 145 µM) | 128 | 32 (≈ 72.5 µM) | 32 (≈ 72.5 µM) | > 128 |
| Clc1ccc(C(Cn2cncn2)[Se]Cc2ccccc2)c(Cl)c1 (configuration not stated) | 16 (≈ 38.9 µM) | 0.13 (≈ 0.316 µM) | 4 (≈ 9.73 µM) | – | > 128 | > 128 | 2 (≈ 4.86 µM) | 64 | 0.13 (≈ 0.316 µM) | 128 (≈ 311 µM) | > 128 | 32 (≈ 77.8 µM) | 64 (≈ 156 µM) | > 128 |
| Fc1ccc(C(Cn2cncn2)[Se]Cc2ccccc2Cl)c(F)c1 (configuration not stated) | 8 (≈ 19.4 µM) | 0.03 (≈ 0.0727 µM) | 2 (≈ 4.85 µM) | – | 2 | 32 | 2 (≈ 4.85 µM) | 4 | 0.13 (≈ 0.315 µM) | 2 (≈ 4.85 µM) | 4 | 0.5 (≈ 1.21 µM) | 1 (≈ 2.42 µM) | 8 |
| Fc1ccc(C(Cn2cncn2)[Se]Cc2ccc(Cl)cc2Cl)c(F)c1 (configuration not stated) | 16 (≈ 35.8 µM) | 0.13 (≈ 0.291 µM) | 2 (≈ 4.47 µM) | – | > 128 | > 128 | 4 (≈ 8.95 µM) | 64 | 0.06 (≈ 0.134 µM) | 128 (≈ 286 µM) | > 128 | > 128 | 64 (≈ 143 µM) | > 128 |
| Cc1ccc(C[Se]C(Cn2cncn2)c2ccc(Cl)cc2Cl)cc1 (configuration not stated) | 16 (≈ 37.6 µM) | 16 (≈ 37.6 µM) | 2 (≈ 4.7 µM) | – | > 128 | > 128 | 32 (≈ 75.3 µM) | > 128 | 2 (≈ 4.7 µM) | 64 (≈ 151 µM) | > 128 | 64 (≈ 151 µM) | 128 (≈ 301 µM) | > 128 |
| Fc1ccc(C[Se]C(Cn2cncn2)c2ccc(F)cc2F)cc1 (configuration not stated) | 8 (≈ 20.2 µM) | 1 (≈ 2.52 µM) | 2 (≈ 5.05 µM) | – | 64 | 128 | 0.5 (≈ 1.26 µM) | 32 | 0.25 (≈ 0.631 µM) | 8 (≈ 20.2 µM) | > 128 | 32 (≈ 80.8 µM) | 4 (≈ 10.1 µM) | > 128 |
| Cc1ccc(C[Se]C(Cn2cncn2)c2ccc(F)cc2F)cc1 (configuration not stated) | 8 (≈ 20.4 µM) | 2 (≈ 5.1 µM) | 2 (≈ 5.1 µM) | – | > 128 | > 128 | 4 (≈ 10.2 µM) | 64 | 2 (≈ 5.1 µM) | 128 (≈ 326 µM) | > 128 | 128 (≈ 326 µM) | 32 (≈ 81.6 µM) | > 128 |
| Fc1ccc(C(Cn2cncn2)[Se]Cc2ccc(Cl)cc2)c(F)c1 (configuration not stated) | 8 (≈ 19.4 µM) | 0.13 (≈ 0.315 µM) | 0.5 (≈ 1.21 µM) | – | 8 | 128 | 4 (≈ 9.69 µM) | 16 | 0.13 (≈ 0.315 µM) | 128 (≈ 310 µM) | 4 | 64 (≈ 155 µM) | 4 (≈ 9.69 µM) | > 128 |
| Clc1ccc(C(Cn2cncn2)[Se]Cc2ccccc2Cl)c(Cl)c1 (configuration not stated) | 16 (≈ 35.9 µM) | 0.03 (≈ 0.0673 µM) | 4 (≈ 8.98 µM) | – | 32 | > 128 | 2 (≈ 4.49 µM) | 8 | 0.13 (≈ 0.292 µM) | 0.06 (≈ 0.135 µM) | > 128 | 8 (≈ 18 µM) | 16 (≈ 35.9 µM) | > 128 |
| Clc1ccc(C[Se]C(Cn2cncn2)c2ccc(Cl)cc2Cl)cc1 (configuration not stated) | 16 (≈ 35.9 µM) | 16 (≈ 35.9 µM) | 2 (≈ 4.49 µM) | – | > 128 | > 128 | 16 (≈ 35.9 µM) | > 128 | 2 (≈ 4.49 µM) | 128 (≈ 287 µM) | > 128 | 64 (≈ 144 µM) | 128 (≈ 287 µM) | > 128 |
